Assay results taken from ChEMBL document CHEMBL3046109, “A Method for Monitoring the Sensitivity of Botrytis cinerea to Mepanipyrim” (2004).

What was measured:
Format in all cases: functional
Botrytis cinerea [1] = assay: Fungicidal activity against anilinopyrimidine-resistant Botryotinia fuckeliana CH15.93 isolated from grape plant assessed as inhibition of mycelial growth at 1 mg/l after 4 days; details: CH15.93, 96 h, read-out: GI
Botrytis cinerea [2] = assay: Fungicidal activity against anilinopyrimidine-resistant Botryotinia fuckeliana CH164.94 isolated from grape plant assessed as inhibition of mycelial growth at 0.1 mg/l after 4 days; details: CH164.94, 96 h, read-out: GI
Botrytis cinerea [3] = assay: Fungicidal activity against anilinopyrimidine-sensitive Botryotinia fuckeliana KU-59 isolated from grape plant assessed as inhibition of mycelial growth at 0.3 mg/l after 4 days; details: KU-59, 96 h, read-out: GI
Botrytis cinerea [4] = assay: Fungicidal activity against anilinopyrimidine-sensitive Botryotinia fuckeliana KU-01 infected in strawberry fruit assessed as inhibition of mycelial growth at 200 mg/l treated 2-3 hr before challenge measured after 5 days; details: read-out: GI
Botrytis cinerea [5] = assay: Fungicidal activity against anilinopyrimidine-sensitive Botryotinia fuckeliana KU-59 isolated from grape plant assessed as inhibition of mycelial growth at 100 mg/l after 4 days; details: KU-59, 96 h, read-out: GI
Botrytis cinerea [6] = assay: Fungicidal activity against anilinopyrimidine-sensitive Botryotinia fuckeliana KU-59 isolated from grape plant assessed as inhibition of mycelial growth at 1 mg/l after 4 days; details: KU-59, 96 h, read-out: GI
Botrytis cinerea [7] = assay: Fungicidal activity against anilinopyrimidine-sensitive Botryotinia fuckeliana KU-01 isolated from grape plant assessed as inhibition of mycelial growth at 30 mg/l after 4 days; details: KU-01, 96 h, read-out: GI
Botrytis cinerea [8] = assay: Fungicidal activity against anilinopyrimidine-resistant Botryotinia fuckeliana CH164.94 isolated from grape plant assessed as inhibition of mycelial growth at 100 mg/l after 4 days; details: CH164.94, 96 h, read-out: GI
Botrytis cinerea [9] = assay: Fungicidal activity against anilinopyrimidine-resistant Botryotinia fuckeliana CH15.93 infected in strawberry fruit assessed as inhibition of mycelial growth at 100 mg/l treated 2-3 hr before challenge measured after 5 days; details: read-out: GI
Botrytis cinerea [10] = assay: Fungicidal activity against anilinopyrimidine-resistant Botryotinia fuckeliana CH164.94 isolated from grape plant assessed as inhibition of mycelial growth at 3 mg/l after 4 days; details: CH164.94, 96 h, read-out: GI
Botrytis cinerea [11] = assay: Fungicidal activity against anilinopyrimidine-resistant Botryotinia fuckeliana CH12.92 isolated from grape plant assessed as inhibition of mycelial growth at 0.1 mg/l after 4 days; details: CH12.92, 96 h, read-out: GI
Botrytis cinerea [12] = assay: Fungicidal activity against anilinopyrimidine-resistant Botryotinia fuckeliana CH12.92 infected in strawberry fruit assessed as inhibition of mycelial growth at 100 mg/l treated 2-3 hr before challenge measured after 5 days; details: read-out: GI
Botrytis cinerea [13] = assay: Fungicidal activity against anilinopyrimidine-resistant Botryotinia fuckeliana CH164.94 infected in strawberry fruit assessed as inhibition of mycelial growth at 200 mg/l treated 2-3 hr before challenge measured after 5 days; details: read-out: GI
Botrytis cinerea [14] = assay: Fungicidal activity against anilinopyrimidine-resistant Botryotinia fuckeliana CH12.92 isolated from grape plant assessed as inhibition of mycelial growth at 100 mg/l after 4 days; details: CH12.92, 96 h, read-out: GI
Botrytis cinerea [15] = assay: Fungicidal activity against anilinopyrimidine-sensitive Botryotinia fuckeliana KU-01 isolated from grape plant assessed as inhibition of mycelial growth at 1 mg/l after 4 days; details: KU-01, 96 h, read-out: GI
Botrytis cinerea [16] = assay: Fungicidal activity against anilinopyrimidine-resistant Botryotinia fuckeliana CH12.92 isolated from grape plant assessed as inhibition of mycelial growth at 1 mg/l after 4 days; details: CH12.92, 96 h, read-out: GI
Botrytis cinerea [17] = assay: Fungicidal activity against anilinopyrimidine-sensitive Botryotinia fuckeliana KU-01 isolated from grape plant assessed as inhibition of mycelial growth at 0.3 mg/l after 4 days; details: KU-01, 96 h, read-out: GI
Botrytis cinerea [18] = assay: Fungicidal activity against anilinopyrimidine-resistant Botryotinia fuckeliana CH12.92 infected in strawberry fruit assessed as inhibition of mycelial growth at 50 mg/l treated 2-3 hr before challenge measured after 5 days; details: read-out: GI
Botrytis cinerea [19] = assay: Fungicidal activity against anilinopyrimidine-sensitive Botryotinia fuckeliana KU-59 isolated from grape plant assessed as inhibition of mycelial growth at 0.1 mg/l after 4 days; details: KU-59, 96 h, read-out: GI
Botrytis cinerea [20] = assay: Fungicidal activity against anilinopyrimidine-resistant Botryotinia fuckeliana CH164.94 infected in strawberry fruit assessed as inhibition of mycelial growth at 100 mg/l treated 2-3 hr before challenge measured after 5 days; details: read-out: GI
Botrytis cinerea [21] = assay: Fungicidal activity against anilinopyrimidine-resistant Botryotinia fuckeliana CH164.94 isolated from grape plant assessed as inhibition of mycelial growth at 1 mg/l after 4 days; details: CH164.94, 96 h, read-out: GI
Botrytis cinerea [22] = assay: Fungicidal activity against anilinopyrimidine-resistant Botryotinia fuckeliana CH12.92 isolated from grape plant assessed as inhibition of mycelial growth at 0.3 mg/l after 4 days; details: CH12.92, 96 h, read-out: GI
Botrytis cinerea [23] = assay: Fungicidal activity against anilinopyrimidine-sensitive Botryotinia fuckeliana KU-59 isolated from grape plant assessed as inhibition of mycelial growth at 10 mg/l after 4 days; details: KU-59, 96 h, read-out: GI
Botrytis cinerea [24] = assay: Fungicidal activity against anilinopyrimidine-resistant Botryotinia fuckeliana CH15.93 isolated from grape plant assessed as inhibition of mycelial growth at 100 mg/l after 4 days; details: CH15.93, 96 h, read-out: GI
Botrytis cinerea [25] = assay: Fungicidal activity against anilinopyrimidine-resistant Botryotinia fuckeliana CH164.94 isolated from grape plant assessed as inhibition of mycelial growth at 10 mg/l after 4 days; details: CH164.94, 96 h, read-out: GI

CC#Cc1cc(C)nc(Nc2ccccc2)n1 [MEPANIPYRIM]
inhibition of growth at 1 µg/mL (Botrytis cinerea [1]): 34.9%
inhibition of growth at 0.1 µg/mL (Botrytis cinerea [2]): 0%
inhibition of growth at 0.3 µg/mL (Botrytis cinerea [3]): 100%
inhibition of growth at 200 µg/mL (Botrytis cinerea [4]): 100%
inhibition of growth at 100 µg/mL (Botrytis cinerea [5]): 100%
inhibition of growth at 1 µg/mL (Botrytis cinerea [6]): 100%
inhibition of growth at 30 µg/mL (Botrytis cinerea [7]): 100%
inhibition of growth at 100 µg/mL (Botrytis cinerea [8]): 70.8%
inhibition of growth at 100 µg/mL (Botrytis cinerea [9]): 0%
inhibition of growth at 3 µg/mL (Botrytis cinerea [10]): 57.9%
inhibition of growth at 0.1 µg/mL (Botrytis cinerea [11]): 0%
inhibition of growth at 100 µg/mL (Botrytis cinerea [12]): 0%
inhibition of growth at 200 µg/mL (Botrytis cinerea [13]): 0%
inhibition of growth at 100 µg/mL (Botrytis cinerea [14]): 70.4%
inhibition of growth at 1 µg/mL (Botrytis cinerea [15]): 100%
inhibition of growth at 1 µg/mL (Botrytis cinerea [16]): 42.6%
inhibition of growth at 0.3 µg/mL (Botrytis cinerea [17]): 100%
inhibition of growth at 50 µg/mL (Botrytis cinerea [18]): 0%
inhibition of growth at 0.1 µg/mL (Botrytis cinerea [19]): 86.4%
inhibition of growth at 100 µg/mL (Botrytis cinerea [20]): 0%
inhibition of growth at 1 µg/mL (Botrytis cinerea [21]): 38.3%
inhibition of growth at 0.3 µg/mL (Botrytis cinerea [22]): 19.8%
inhibition of growth at 10 µg/mL (Botrytis cinerea [23]): 100%
inhibition of growth at 100 µg/mL (Botrytis cinerea [24]): 75.4%
inhibition of growth at 10 µg/mL (Botrytis cinerea [25]): 67.1%
